Results taken from patent US20240270741A1 (Cogent Biosciences, Inc., priority 2023, published 2024).

molecular target: FGFR2 (Homo sapiens, UniProt P21802); experiment: FGFR wild type enzyme assay (HTRF KinEASE-TK), FGFR2; conditions: Enz FGFR2 (nM), FGFR2 wild type enzyme
Sequence (P21802 399-821 limits assumed): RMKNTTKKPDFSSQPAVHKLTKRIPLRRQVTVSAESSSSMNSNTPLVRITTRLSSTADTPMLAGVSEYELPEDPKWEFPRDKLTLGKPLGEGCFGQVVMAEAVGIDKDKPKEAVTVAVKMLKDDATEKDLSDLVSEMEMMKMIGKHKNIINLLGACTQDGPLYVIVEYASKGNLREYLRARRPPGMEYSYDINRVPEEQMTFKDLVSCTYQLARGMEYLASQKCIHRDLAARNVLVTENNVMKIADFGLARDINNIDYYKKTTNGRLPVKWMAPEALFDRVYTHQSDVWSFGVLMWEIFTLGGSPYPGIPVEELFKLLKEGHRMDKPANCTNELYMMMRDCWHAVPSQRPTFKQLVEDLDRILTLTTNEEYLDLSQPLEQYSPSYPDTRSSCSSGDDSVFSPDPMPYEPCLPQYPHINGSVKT

Row | SMILES | IC50
1 | Cc1c(-c2cc(Sc3ncccc3F)c3c(C#N)cnn3c2)cnn1C[C@@H]1[C@@H]2CNC[C@@H]21 [Example 236, 6-(1-(((1R,5S,6s)-3-azabicyclo[3.1.0]hexan-6-yl)methyl)-5-methyl-1H-pyrazol-4-yl)-4-((3-fluoropyridin-2-yl)thio)pyrazolo[1,5-a]pyridine-3-carbonitrile] | 1 nM
2 | CC(=O)N1C[C@@H]2[C@H](C1)[C@H]2Cn1ncc(-c2cc(Sc3ncccc3F)c3c(C#N)cnn3c2)c1C [Example 237, 6-(1-(((1R,5S,6r)-3-acetyl-3-azabicyclo[3.1.0]hexan-6-yl)methyl)-5-methyl-1H-pyrazol-4-yl)-4-((3-fluoropyridin-2-yl)thio)pyrazolo[1,5-a]pyridine-3-carbonitrile] | 3 nM
3 | CC(=O)N1C[C@@H]2[C@H](C1)[C@@H]2Cn1ncc(-c2cc(Sc3ncccc3F)c3c(C#N)cnn3c2)c1C [Example 238, 6-(1-(((1R,5S,6s)-3-acetyl-3-azabicyclo[3.1.0]hexan-6-yl)methyl)-5-methyl-1H-pyrazol-4-yl)-4-((3-fluoropyridin-2-yl)thio)pyrazolo[1,5-a]pyridine-3-carbonitrile] | 3 nM
4 | Cc1c(-c2cc(Sc3ncccc3F)c3c(C#N)cnn3c2)cnn1C[C@H]1CC[C@H](O)CC1 [Example 239, 4-((3-fluoropyridin-2-yl)thio)-6-(1-(((1r,4r)-4-hydroxycyclohexyl)methyl)-5-methyl-1H-pyrazol-4-yl)pyrazolo[1,5-a]pyridine-3-carbonitrile] | 3 nM
5 | Cc1c(-c2cc(Sc3ncccc3F)c3c(C#N)cnn3c2)cnn1C1CCN(Cc2ccccn2)CC1 [Example 240, 4-((3-fluoropyridin-2-yl)thio)-6-(5-methyl-1-(1-(pyridin-2-ylmethyl)piperidin-4-yl)-1H-pyrazol-4-yl)pyrazolo[1,5-a]pyridine-3-carbonitrile] | 2 nM
6 | Cc1c(-c2cc(Sc3ncccc3F)c3c(C#N)cnn3c2)cnn1[C@H]1CC[C@@H](N(C)CCO)CC1 [Example 241, 4-((3-fluoropyridin-2-yl)thio)-6-(1-((1s,4s)-4-((2-hydroxyethyl)(methyl)ami-no)cyclohexyl)-5-methyl-1H-pyrazol-4-yl)pyrazolo[1,5-a]pyridine-3-carbonitrile] | 1 nM
7 | CCN[C@H]1CC[C@@H](n2ncc(-c3cc(Sc4ncccc4F)c4c(C#N)cnn4c3)c2C)CC1 [Example 242, 6-(1-((1s,4s)-4-(ethylamino)cyclohexyl)-5-methyl-1H-pyrazol-4-yl)-4-((3-fluoropyridin-2-yl)thio)pyrazolo[1,5-a]pyridine-3-carbonitrile] | 1 nM
8 | Cc1c(-c2cc(Sc3ncccc3F)c3c(C#N)cnn3c2)cnn1[C@H]1CC[C@@H](NC(C)C)CC1 [Example 243, 4-((3-fluoropyridin-2-yl)thio)-6-(1-((1s,4s)-4-(isopropylamino)cyclohex-yl)-5-methyl-1H-pyrazol-4-yl)pyrazolo[1,5-a]pyridine-3-carbonitrile] | 1 nM
9 | Cc1c(-c2cc(Sc3ncccc3F)c3c(C#N)cnn3c2)cnn1[C@H]1CC[C@@H](NCC(F)(F)F)CC1 [Example 244, 4-((3-fluoropyridin-2-yl)thio)-6-(5-methyl-1-((1s,4s)-4-((2,2,2-trifluoroethyl)amino)cyclo-hexyl)-1H-pyrazol-4-yl)pyrazolo[1,5-a]pyridine-3-carbonitrile] | 2.5 nM
10 | CC(=O)N1C[C@H]2C[C@H](n3ncc(-c4cc(Sc5ncccc5F)c5c(C#N)cnn5c4)c3C)C[C@H]2C1 [Example 245, 6-(1-((3aR,5s,6aS)-2-acetyloctahydrocylcopenta [c]pyrrol-5-yl)-5-methyl-1H-pyrazol-4-yl)-4-((3-fluoropyridin-2-yl)thio)pyrazolo[1,5-a]pyridine-3-carbonitrile] | 2.5 nM
11 | Cc1c(-c2cc(Sc3ncccc3F)c3c(C#N)cnn3c2)cnn1[C@H]1C[C@H](CO)C1 [Example 246, 4-((3-fluoropyridin-2-yl)thio)-6-(1-((1r,3r)-3-(hydroxymethyl)cyclobutyl)-5-methyl-1H-pyrazol-4-yl)pyrazolo[1,5-a]pyridine-3-carbonitrile] | 4 nM
12 | CN(C)[C@H]1CC[C@@H](n2cc(-c3cc(Sc4ncccc4F)c4c(C#N)cnn4c3)cn2)CC1 [Example 247, 6-(1-((1s,4s)-4-(dimethylamino)cyclohex-yl)-1H-pyrazol-4-yl)-4-((3-fluoropyridin-2-yl)thio)pyrazolo[1,5-a]pyridine-3-carbonitrile] | 1 nM
13 | CC(=O)N(C)[C@H]1CC[C@@H](n2ncc(-c3cc(Sc4ncccc4F)c4c(C#N)cnn4c3)c2C)CC1 [Example 248, N-((1s,4s)-4-(4-(3-cyano-4-((3-fluoropyridin-2-yl)thio)pyrazolo[1,5-a]pyridin-6-yl)-5-methyl-1H-pyrazol-1-yl)cyclohexyl)-N-methylacetamide] | 2 nM
14 | Cc1c(-c2cc(Sc3ncccc3F)c3c(C#N)cnn3c2)cnn1[C@H]1CC[C@@H](N(C)S(C)(=O)=O)CC1 [Example 249, N-((1s,4s)-4-(4-(3-cyano-4-((3-fluoropyridin-2-yl)thio)pyrazolo[1,5-a]pyridin-6-yl)-5-methyl-1H-pyrazol-1-yl)cyclohexyl)-N-methylmethanesulfonamide] | 3 nM
15 | CCN[C@H]1CC[C@@H](n2ncc(-c3cc(Sc4ccccc4C#N)c4c(C#N)cnn4c3)c2C)CC1 [Example 250, 4-((2-cyanophenyl)thio)-6-(1-((1s,4s)-4-(ethylamino)cylcohexyl)-5-methyl-1H-pyrazol-4-yl)pyrazolo[1,5-a]pyridine-3-carbonitrile] | 0.4 nM
16 | Cc1c(-c2cc(Sc3ccccc3C#N)c3c(C#N)cnn3c2)cnn1[C@H]1CC[C@@H](NC(C)C)CC1 [Example 251] | 0.5 nM
17 | Cc1c(-c2cc(Sc3ncccc3F)c3c(C#N)cnn3c2)cnn1C1CCNC(C)C1 (centres unmarked) [Example 252, 4-((3-fluoropyridin-2-yl)thio)-6-(5-methyl-1-(2-methylpiperidin-4-yl)-1H-pyrazol-4-yl)pyrazolo[1,5-a]pyridine-3-carbonitrile] | 1 nM
18 | Cc1c(-c2cc(Sc3ncccc3F)c3c(C#N)cnn3c2)cnn1[C@H]1CC[C@@H](NCC2(C)CC2)CC1 [Example 253, 4-((3-fluoropyridin-2-yl)thio)-6-(5-methyl-1-((1s,4s)-4-(((1-methylcyclopropyl)methyl)amino)cyclohexyl)-1H-pyrazol-4-yl)pyrazolo[1,5-a]pyridine-3-carbonitrile] | 0.6 nM
19 | Cc1c(-c2cc(Sc3ncccc3F)c3c(C#N)cnn3c2)cnn1[C@H]1CC[C@@H](N(C)C(=O)C(C)(C)N)CC1 [Example 254, 2-amino-N-((1s,4s)-4-(4-(3-cyano-4-((3-fluoropyridin-2-yl)thio)pyrazolo[1,5-a]pyridin-6-yl)-5-methyl-1H-pyrazol-1-y)cyclohexyl)-N,2-dimethylpropanamide] | 1 nM
20 | CN[C@H]1CC[C@@H](n2ncc(-c3cc(Sc4ccc(F)cc4C#N)c4c(C#N)cnn4c3)c2C)CC1 [Example 255, 4-((2-cyano-4-fluorophenyl)thio)-6-(5-methyl-1-((1s,4s)-4-(methylamino)cyclohexyl)-1H-pyrazol-4-yl)pyrazolo[1,5-a]pyridine-3-carbonitrile] | 0.3 nM
